Experimental data taken from patent US20250319095A1, “USE OF BENZO[…] INCREASE SENSITIVITY TO […] A CHRONIC SSRI REGIMEN” (Compass Pathfinder Limited, priority 2020, published 2025).
≈ marks a conversion by molar mass, not a printed value.

What was measured:
[1] = Solubility of psilocybin in water
Mouse [2] = test: Head twitch response to psilocybin after acute diazepam pretreatment; format: in vivo
Protocol: (§1) Animals were dosed as detailed by Table 10 below and were placed in a clean cage. The number of head twitches and wet dog shakes were then counted by a scorer for 30 minutes after dosing. The timings of head twitches and wet dog shakes were recorded by a computer program. The experiment was carried out over three days. Scorers were blinded to treatment group.
(§2) Number of head twitches over each 5-minute period and each 15-minute period and the total for 0-30 minutes were square-root transformed and analyzed by three way ANOVA with treatment, day, and scorer as factors. Ethovision data was analyzed by robust regression using M estimation, Huber weighting, using the default parameter C=1.345. The model used treatment, day, and scorer as factors.
(§3) P<0.05 was the level accepted for statistical difference. The chance of a false positive is 5% for each dose for each time. All tests were carried out as two-sided tests.

Mouse [3] = test: Ethovision activity to psilocybin after acute diazepam pretreatment; format: in vivo
Protocol: as §1
Ethovision data was organized into 5-minute and 15-minute time periods and 0-30 minutes for each animal. Ethovision scores were log transformed, however Shapiro-Wilk tests were significant for many of the 5-minute and 15-minute time windows. Therefore, robust regression was used to analyze the Ethovision data.
as §2, §3

male C57BL/6J mice = test: Psilocybin head twitch response with chronic diazepam pre-treatment; format: in vivo
Protocol: Sixty-two (60 plus 2 spares;) male C57BL/6J mice (20-25 g upon arrival) were purchased from Charles River UK. Animals were group housed (in 3 s and a pair) in polypropylene cages. Mice were maintained on a normal phase 12 h light-dark cycle (lights on: 07:00-19:00 h) with free access to standard rodent maintenance diet (standard pelleted diet Envigo 2018) and filtered tap water. The holding room was maintained at a temperature of 21±4° C. and relative humidity was 55±15% with prolonged periods below 40% RH or above 70% RH avoided as detailed in the UK Code of Practice. As a refinement, each cage contained sawdust, sizzle nest, a red house, Perspex tunnel, plastic chew stick and a nestlet so that the mice can make nests and facilitate warmth. Mice were weighed upon arrival and provided with wet mash overnight. The following morning, mice were weighed, and the mash removed.
Mice were weighed and allocated into 6 treatment groups by a statistician (as per Table 20 below). […] For groups A-D animals were placed individually in clean cages with a light dusting of sawdust immediately following psilocybin administration (0.3 mg/kg, s.c) for head twitch response assessment. Head twitches were counted by a trained observer over a 30 minute period.
Statistical significance was tested using two-way analysis of variance with treatment and observer as cofactors (Table 21 below).

[4] = 0 to 5 mins, Psilocybin 0.3 mg/kg sc 1 hr post Diazepam 4 mg/kg ip or Saline ip
[5] = 0 to 5 mins, Psilocybin 1 mg/kg sc 1 hr post Diazepam 4 mg/kg ip or Saline ip
[6] = 0 to 5 mins, Psilocybin 3 mg/kg sc 1 hr post Diazepam 4 mg/kg ip or Saline ip
[7] = 0 to 15 mins, Psilocybin 0.3 mg/kg sc 1 hr post Diazepam 4 mg/kg ip or Saline ip
[8] = 0 to 15 mins, Psilocybin 1 mg/kg sc 1 hr post Diazepam 4 mg/kg ip or Saline ip
[9] = 0 to 15 mins, Psilocybin 3 mg/kg sc 1 hr post Diazepam 4 mg/kg ip or Saline ip
[10] = 0 to 30 mins (total), Psilocybin 0.3 mg/kg sc 1 hr post Diazepam 4 mg/kg ip or Saline ip
[11] = 0 to 30 mins (total), Psilocybin 1 mg/kg sc 1 hr post Diazepam 4 mg/kg ip or Saline ip
[12] = 0 to 30 mins (total), Psilocybin 3 mg/kg sc 1 hr post Diazepam 4 mg/kg ip or Saline ip
[13] = 5 to 10 mins, Psilocybin 0.3 mg/kg sc 1 hr post Diazepam 4 mg/kg ip or Saline ip
[14] = 5 to 10 mins, Psilocybin 1 mg/kg sc 1 hr post Diazepam 4 mg/kg ip or Saline ip
[15] = 5 to 10 mins, Psilocybin 3 mg/kg sc 1 hr post Diazepam 4 mg/kg ip or Saline ip
[16] = 10 to 15 mins, Psilocybin 0.3 mg/kg sc 1 hr post Diazepam 4 mg/kg ip or Saline ip
[17] = 10 to 15 mins, Psilocybin 1 mg/kg sc 1 hr post Diazepam 4 mg/kg ip or Saline ip
[18] = 10 to 15 mins, Psilocybin 3 mg/kg sc 1 hr post Diazepam 4 mg/kg ip or Saline ip
[19] = 15 to 20 mins, Psilocybin 0.3 mg/kg sc 1 hr post Diazepam 4 mg/kg ip or Saline ip
[20] = 15 to 20 mins, Psilocybin 1 mg/kg sc 1 hr post Diazepam 4 mg/kg ip or Saline ip
[21] = 15 to 20 mins, Psilocybin 3 mg/kg sc 1 hr post Diazepam 4 mg/kg ip or Saline ip
[22] = 15 to 30 mins, Psilocybin 0.3 mg/kg sc 1 hr post Diazepam 4 mg/kg ip or Saline ip
[23] = 15 to 30 mins, Psilocybin 1 mg/kg sc 1 hr post Diazepam 4 mg/kg ip or Saline ip
[24] = 15 to 30 mins, Psilocybin 3 mg/kg sc 1 hr post Diazepam 4 mg/kg ip or Saline ip
[25] = 20 to 25 mins, Psilocybin 0.3 mg/kg sc 1 hr post Diazepam 4 mg/kg ip or Saline ip
[26] = 20 to 25 mins, Psilocybin 1 mg/kg sc 1 hr post Diazepam 4 mg/kg ip or Saline ip
[27] = 20 to 25 mins, Psilocybin 3 mg/kg sc 1 hr post Diazepam 4 mg/kg ip or Saline ip
[28] = 25 to 30 mins, Psilocybin 0.3 mg/kg sc 1 hr post Diazepam 4 mg/kg ip or Saline ip
[29] = 25 to 30 mins, Psilocybin 1 mg/kg sc 1 hr post Diazepam 4 mg/kg ip or Saline ip
[30] = 25 to 30 mins, Psilocybin 3 mg/kg sc 1 hr post Diazepam 4 mg/kg ip or Saline ip

CN(C)CCc1c[nH]c2cccc(OP(=O)(O)O)c12 [Psilocybin, psilocybin]
solubility [1]: ~15 mg/mL (≈ 52.8 mM) | Head twitches Mean (Mouse [2]; [4]): 1.84 | Head twitches Mean (Mouse [2]; [5]): 2.42 | Head twitches Mean (Mouse [2]; [6]): 5.34 | Head twitches Mean (Mouse [2]; [7]): 5.57 | Head twitches Mean (Mouse [2]; [8]): 6.32 | Head twitches Mean (Mouse [2]; [9]): 12.4 | Head twitches Mean (Mouse [2]; [10]): 8.38 | Head twitches Mean (Mouse [2]; [11]): 8.98 | Head twitches Mean (Mouse [2]; [12]): 15.66 | Head twitches Mean (Mouse [2]; [13]): 1.64 | Head twitches Mean (Mouse [2]; [14]): 1.39 | Head twitches Mean (Mouse [2]; [15]): 4.67 | Head twitches Mean (Mouse [2]; [16]): 1.36 | Head twitches Mean (Mouse [2]; [17]): 1.44 | Head twitches Mean (Mouse [2]; [18]): 2.07 | Head twitches Mean (Mouse [2]; [19]): 0.93 | Head twitches Mean (Mouse [2]; [20]): 1.35 | Head twitches Mean (Mouse [2]; [21]): 1.07 | Head twitches Mean (Mouse [2]; [22]): 2.57 | Head twitches Mean (Mouse [2]; [23]): 2.39 | Head twitches Mean (Mouse [2]; [24]): 2.5 | Head twitches Mean (Mouse [2]; [25]): 0.39 | Head twitches Mean (Mouse [2]; [26]): 0.43 | Head twitches Mean (Mouse [2]; [27]): 0.66 | Head twitches Mean (Mouse [2]; [28]): 0.59 | Head twitches Mean (Mouse [2]; [29]): 0.15 | Head twitches Mean (Mouse [2]; [30]): 0.34 | Ethovision data Mean (Mouse [3]; [4]): 801.48 | Ethovision data Mean (Mouse [3]; [5]): 826.56 | Ethovision data Mean (Mouse [3]; [6]): 785.38 | Ethovision data Mean (Mouse [3]; [7]): 2149.79 | Ethovision data Mean (Mouse [3]; [8]): 2025.10 | Ethovision data Mean (Mouse [3]; [9]): 1667.64 | Ethovision data Mean (Mouse [3]; [10]): 3782.48 | Ethovision data Mean (Mouse [3]; [11]): 3368.87 | Ethovision data Mean (Mouse [3]; [12]): 2403.79 | Ethovision data Mean (Mouse [3]; [13]): 704.55 | Ethovision data Mean (Mouse [3]; [14]): 665.97 | Ethovision data Mean (Mouse [3]; [15]): 516.00 | Ethovision data Mean (Mouse [3]; [16]): 641.76 | Ethovision data Mean (Mouse [3]; [17]): 519.27 | Ethovision data Mean (Mouse [3]; [18]): 353.03 | Ethovision data Mean (Mouse [3]; [19]): 517.51 | Ethovision data Mean (Mouse [3]; [20]): 430.23 | Ethovision data Mean (Mouse [3]; [21]): 271.26 | Ethovision data Mean (Mouse [3]; [22]): 1630.42 | Ethovision data Mean (Mouse [3]; [23]): 1337.33 | Ethovision data Mean (Mouse [3]; [24]): 719.96 | Ethovision data Mean (Mouse [3]; [25]): 519.96 | Ethovision data Mean (Mouse [3]; [26]): 444.11 | Ethovision data Mean (Mouse [3]; [27]): 208.90 | Ethovision data Mean (Mouse [3]; [28]): 551.06 | Ethovision data Mean (Mouse [3]; [29]): 430.12 | Ethovision data Mean (Mouse [3]; [30]): 213.04 | Mean head twitch responses (male C57BL/6J mice; 0-5 mins, Psilocybin 0.3 mg/kg sc 2 hr post Diazepam 1.25 mg/kg ip bid 14 days or Saline ip bid): 0.76 | Mean head twitch responses (male C57BL/6J mice; 0-5 mins, Psilocybin 0.3 mg/kg sc 24 hr post Diazepam 1.25 mg/kg ip bid 14 days or Saline ip bid): 1.81 | Mean head twitch responses (male C57BL/6J mice; 0-15 mins, Psilocybin 0.3 mg/kg sc 2 hr post Diazepam 1.25 mg/kg ip bid 14 days or Saline ip bid): 2.93 | Mean head twitch responses (male C57BL/6J mice; 0-15 mins, Psilocybin 0.3 mg/kg sc 24 hr post Diazepam 1.25 mg/kg ip bid 14 days or Saline ip bid): 5.65 | Mean head twitch responses (male C57BL/6J mice; 0-30 mins, Psilocybin 0.3 mg/kg sc 2 hr post Diazepam 1.25 mg/kg ip bid 14 days or Saline ip bid): 5.78 | Mean head twitch responses (male C57BL/6J mice; 0-30 mins, Psilocybin 0.3 mg/kg sc 24 hr post Diazepam 1.25 mg/kg ip bid 14 days or Saline ip bid): 9.70 | Mean head twitch responses (male C57BL/6J mice; 5-10 mins, Psilocybin 0.3 mg/kg sc 2 hr post Diazepam 1.25 mg/kg ip bid 14 days or Saline ip bid): 0.81 | Mean head twitch responses (male C57BL/6J mice; 5-10 mins, Psilocybin 0.3 mg/kg sc 24 hr post Diazepam 1.25 mg/kg ip bid 14 days or Saline ip bid): 2.25 | Mean head twitch responses (male C57BL/6J mice; 10-15 mins, Psilocybin 0.3 mg/kg sc 2 hr post Diazepam 1.25 mg/kg ip bid 14 days or Saline ip bid): 0.81 | Mean head twitch responses (male C57BL/6J mice; 10-15 mins, Psilocybin 0.3 mg/kg sc 24 hr post Diazepam 1.25 mg/kg ip bid 14 days or Saline ip bid): 1.04 | Mean head twitch responses (male C57BL/6J mice; 15-20 mins, Psilocybin 0.3 mg/kg sc 2 hr post Diazepam 1.25 mg/kg ip bid 14 days or Saline ip bid): 0.60 | Mean head twitch responses (male C57BL/6J mice; 15-20 mins, Psilocybin 0.3 mg/kg sc 24 hr post Diazepam 1.25 mg/kg ip bid 14 days or Saline ip bid): 1.70 | Mean head twitch responses (male C57BL/6J mice; 15-30 mins, Psilocybin 0.3 mg/kg sc 2 hr post Diazepam 1.25 mg/kg ip bid 14 days or Saline ip bid): 2.35 | Mean head twitch responses (male C57BL/6J mice; 15-30 mins, Psilocybin 0.3 mg/kg sc 24 hr post Diazepam 1.25 mg/kg ip bid 14 days or Saline ip bid): 3.60 | Mean head twitch responses (male C57BL/6J mice; 20-25 mins, Psilocybin 0.3 mg/kg sc 2 hr post Diazepam 1.25 mg/kg ip bid 14 days or Saline ip bid): 0.32 | Mean head twitch responses (male C57BL/6J mice; 20-25 mins, Psilocybin 0.3 mg/kg sc 24 hr post Diazepam 1.25 mg/kg ip bid 14 days or Saline ip bid): 0.43 | Mean head twitch responses (male C57BL/6J mice; 25-30 mins, Psilocybin 0.3 mg/kg sc 2 hr post Diazepam 1.25 mg/kg ip bid 14 days or Saline ip bid): 0.80 | Mean head twitch responses (male C57BL/6J mice; 25-30 mins, Psilocybin 0.3 mg/kg sc 24 hr post Diazepam 1.25 mg/kg ip bid 14 days or Saline ip bid): 1.16
